Experimental data from the NIST ThermoML archive (doi:10.1016/j.jct.2014.04.026).
Values joined by “and” are separate entries in the source; they are usually repeats but may differ in a detail not shown here. Equal entries are not always repeated.

Legend:
[1] = for vapor or sublimation pressure: Closed cell (Static) method; for Normal melting temperature: DTA
[2] = Molar enthalpy of transition or fusion; conditions: Crystal; DSC

Cn1cccn1 [1-methyl-1H-pyrazole]
[1], Liquid
Conditions	vapor or sublimation pressure [kPa]
253.9 K	0.0681
255.85 K	0.08089
257.81 K	0.0948
260.03 K	0.1138
261.7 K	0.1308
263.65 K	0.1508
265.63 K	0.1755
267.62 K	0.2033
269.55 K	0.2358
271.5 K	0.2714
273.47 K	0.3111
275.47 K	0.3597
277.42 K	0.4115
279.4 K	0.4704
281.39 K	0.539
283.35 K	0.6108
285.3 K	0.6958
287.32 K	0.7878
289.32 K	0.893
291.27 K	1.01
293.27 K	1.147

Conditions	Normal melting temperature [°C]
[1], Crystal	-43.9

Conditions	Molar enthalpy of transition or fusion [kJ/mol]
[2]	11.4

Cn1cnc2ccccc21 [1-methylbenzimidazole]
[1]
Conditions	vapor or sublimation pressure
301.22 K, Crystal	0.00026 kPa
303.14 K, Crystal	0.00033 kPa
303.16 K, Liquid	0.00051 kPa
305.14 K, Crystal	0.00042 kPa
305.18 K, Crystal	0.00041 kPa
305.2 K, Liquid	0.00062 kPa
307.12 K, Liquid	0.00074 kPa
307.14 K, Crystal	0.00051 kPa
309.1 K, Liquid	0.00089 kPa
309.11 K, Crystal	0.00063 kPa
311.07 K, Crystal	0.00078 kPa
311.09 K, Liquid	0.00107 kPa
313.09 K, Crystal	0.00097 kPa
313.12 K, Liquid	0.00128 kPa
315.09 K, Liquid	0.00153 kPa
315.1 K, Crystal	0.00119 kPa
317.04 K, Liquid	0.00182 kPa
317.06 K, Crystal	0.00146 kPa
319.03 K, Crystal	0.00178 kPa
319.07 K, Liquid	0.00217 kPa
321.01 K, Liquid	0.00255 kPa
321.02 K, Crystal	0.00217 kPa
322.97 K, Crystal	0.00264 kPa
322.99 K, Liquid	0.00304 kPa
325.01 K, Crystal	0.00324 kPa
327 K, Crystal	0.00392 kPa
328.91 K, Crystal	0.00473 kPa
332.95 K, Liquid	0.00656 kPa
334.92 K, Liquid	0.00759 kPa
336.91 K, Liquid	0.0089 kPa
336.92 K, Liquid	0.00896 kPa
338.9 K, Liquid	0.01031 kPa
340.86 K, Liquid	0.01187 kPa
340.87 K, Liquid	0.01203 kPa
342.88 K, Liquid	0.01375 kPa
344.83 K, Liquid	0.01603 kPa and 0.01591 kPa
346.81 K, Liquid	0.01835 kPa
348.79 K, Liquid	0.02107 kPa
350.76 K, Liquid	0.02401 kPa
352.73 K, Liquid	0.02767 kPa and 0.02759 kPa
354.7 K, Liquid	0.03132 kPa
356.69 K, Liquid	0.03607 kPa
358.67 K, Liquid	0.04098 kPa
360.63 K, Liquid	0.04632 kPa
362.6 K, Liquid	0.05225 kPa
364.59 K, Liquid	0.05898 kPa
366.55 K, Liquid	0.06653 kPa
368.53 K, Liquid	0.07509 kPa
370.5 K, Liquid	0.08443 kPa
372.49 K, Liquid	0.09469 kPa

Conditions	Normal melting temperature [°C]
[1], Crystal	56.1

Conditions	Molar enthalpy of transition or fusion [kJ/mol]
[2]	13.9

Cn1ccc2ccccc21 [1-methylindole]
[1]
Conditions	vapor or sublimation pressure [kPa]
267.62 K, Crystal	0.00033
268.58 K, Liquid	0.00043
268.6 K, Crystal	0.00037
269.57 K, Crystal	0.00042
270.55 K, Crystal	0.00048
270.56 K, Liquid	0.00054
271.57 K, Crystal	0.00054
272.5 K, Liquid	0.00066
272.52 K, Crystal	0.0006
273.51 K, Crystal	0.00068
274.48 K, Liquid	0.00081
274.5 K, Crystal	0.00077
275.47 K, Crystal	0.00086
276.45 K, Liquid	0.00097
278.42 K, Liquid	0.0012
280.39 K, Liquid	0.00145
282.35 K, Liquid	0.00176
284.36 K, Liquid	0.00211
286.31 K, Liquid	0.00252
288.32 K, Liquid	0.00302
290.27 K, Liquid	0.00358
290.29 K, Liquid	0.00359
292.29 K, Liquid	0.00431
294.24 K, Liquid	0.00507
296.28 K, Liquid	0.00607
298.2 K, Liquid	0.0071
300.25 K, Liquid	0.00844
302.2 K, Liquid	0.00987
304.21 K, Liquid	0.01167
306.16 K, Liquid	0.01359
308.14 K, Liquid	0.0158
310.17 K, Liquid	0.01854
312.14 K, Liquid	0.02149
314.11 K, Liquid	0.02521
316.14 K, Liquid	0.029
318.06 K, Liquid	0.03354
320.05 K, Liquid	0.03839
322.02 K, Liquid	0.0445
324.04 K, Liquid	0.05044
326.02 K, Liquid	0.05848
327.98 K, Liquid	0.06647
329.95 K, Liquid	0.07637
331.91 K, Liquid	0.08658
333.89 K, Liquid	0.09881
335.91 K, Liquid	0.1114
337.89 K, Liquid	0.1263
339.81 K, Liquid	0.1424
341.9 K, Liquid	0.1624

Conditions	Normal melting temperature [°C]
[1], Crystal	3.4

Conditions	Molar enthalpy of transition or fusion [kJ/mol]
[2]	10.9
